Reference: PMC10112521, “High-throughput AR dimerization assay identifies androgen disrupting chemicals and metabolites” (Frontiers in Toxicology, 2023)
Like-named read-outs stand apart in the source and are kept apart here. One block for each compound: values may come before it.

Experiments:
[1] = system: AR2 cells (HepG2-AR2)
[2] = system: AR; parameters: method as in Kleinstreuer et al., 2017; conditions: 2017, cited from earlier work; for Agonist reference: AR agonist reference class ref Kleinstreuer et al.; for Antagonist reference: AR antagonist reference class ref Kleinstreuer et al.
[3] = system: AR2 cells (HepG2-AR2); experiment: Alamar Blue (resazurin) post hoc cell viability / cytotoxicity assay in AR2 cells; conditions: spid Viability, sheet antagonist_fits; for hill_tp (Hill model top): 0 where win_model is Constant
[4] = molecular target: T1, human AR (Homo sapiens, UniProt P10275); experiment: AR2 assay, antagonist mode: disruption of R1881 (10 nM)-induced AR homodimerization in HepG2-AR2 cells; assay type: cell-based; conditions: spid AR_antagonist, sheet antagonist_fits; for hill_gw (Hill model slope) / hill_tp (Hill model top): 0 where win_model is Constant
T1 sequence (P10275 1-920) 1: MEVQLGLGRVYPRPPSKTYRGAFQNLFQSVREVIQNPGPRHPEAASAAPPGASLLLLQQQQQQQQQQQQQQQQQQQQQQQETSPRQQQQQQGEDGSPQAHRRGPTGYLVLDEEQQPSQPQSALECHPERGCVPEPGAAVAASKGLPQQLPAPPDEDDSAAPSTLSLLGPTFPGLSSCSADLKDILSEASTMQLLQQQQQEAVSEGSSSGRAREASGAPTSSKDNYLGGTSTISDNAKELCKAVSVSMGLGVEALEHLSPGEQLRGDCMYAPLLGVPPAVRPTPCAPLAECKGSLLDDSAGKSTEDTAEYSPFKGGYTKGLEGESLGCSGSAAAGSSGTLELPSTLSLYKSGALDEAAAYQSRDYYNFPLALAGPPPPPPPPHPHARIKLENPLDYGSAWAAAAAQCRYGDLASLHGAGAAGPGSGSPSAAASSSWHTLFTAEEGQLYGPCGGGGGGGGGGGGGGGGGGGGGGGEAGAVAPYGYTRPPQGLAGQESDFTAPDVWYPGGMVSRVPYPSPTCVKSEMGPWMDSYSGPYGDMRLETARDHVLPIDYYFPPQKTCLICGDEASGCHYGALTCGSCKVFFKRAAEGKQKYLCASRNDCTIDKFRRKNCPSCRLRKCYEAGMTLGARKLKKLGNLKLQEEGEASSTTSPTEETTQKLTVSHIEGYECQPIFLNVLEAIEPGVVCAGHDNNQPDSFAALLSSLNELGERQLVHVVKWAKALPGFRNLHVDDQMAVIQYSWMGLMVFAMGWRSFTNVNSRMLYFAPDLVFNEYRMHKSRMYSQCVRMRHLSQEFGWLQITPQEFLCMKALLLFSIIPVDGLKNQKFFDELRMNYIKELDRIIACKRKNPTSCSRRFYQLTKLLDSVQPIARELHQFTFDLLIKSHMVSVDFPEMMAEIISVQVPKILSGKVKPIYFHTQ
T1 sequence (P10275 1-920) 2: T1 sequence (P10275 1-920) 1

[5] = molecular target: T1, human AR; experiment: cell-based; parameters: species or system AR2 cells (HepG2-AR2); NanoLuc complementation AR homodimerization, agonist mode, luminescence gain, AC50 by Hill fit; conditions: hill_ga, spid=Bgal; agonist mode, 18 h, no CYP expressed
[6] = molecular target: T1, human AR; experiment: AR2 assay, agonist mode: ligand-dependent AR homodimerization (NanoBiT luciferase complementation) in stable HepG2-AR2 cells; assay type: cell-based; conditions: for hill_tp: Hill model top (efficacy), 0 given where win_model is Constant; for win_model: winning concentration-response model (Constant, Hill, Gain-Loss);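 as to hill tp: Log2 fold change of luminescence over DMSO vehicle wells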;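 as to max med: Log2 fold change of luminescence over DMSO vehicle wells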
[7] = molecular target: T1, human AR; experiment: cell-based; parameters: species or system AR2 cells (HepG2-AR2); NanoLuc complementation AR homodimerization, antagonist mode, loss of agonist-induced luminescence, AC50 by Hill fit; conditions: hill_ga, antagonist mode, 10 nM agonist stimulus, 18 h, no CYP expressed
[8] = sheet agonist_fits, maximum median response

SMILES: CC(C)NC(=O)N1CC(=O)N(c2cc(Cl)cc(Cl)c2)C1=O [Iprodione]
hill_ga (Hill model log AC50) [1]: 0 | Agonist reference ([2]; Supplementary Table S1): Inactive | max_med (maximum median response) [3]: 9.628 | hill_tp (Hill model top) [3]: 0

SMILES: C#CCOS(=O)OC1CCCCC1Oc1ccc(C(C)(C)C)cc1 (stereo not shown) [Propargite]
hill_ga (Hill model log AC50) [1]: 0.5083 | max_med (maximum median response) [3]: 5.892 | hill_tp (Hill model top) [3]: 5.298

SMILES: CC(C)(c1ccccc1)c1ccc(O)cc1 [4-Cumylphenol]
hill_ga (Hill model log AC50) [1]: 1.81 | max_med (maximum median response) [3]: 99.676

SMILES: CCCSP(=O)(OCC)SCCC [Ethoprop]
max_med (maximum median response) [4]: 30.1172 | win_model (winning concentration-response model) [4]: Hill | hill_gw (Hill model slope) [4]: 1.091 | hill_tp (Hill model top) [4]: 36.6932 | max_med (maximum median response) [3]: 22.3553 | hill_tp (Hill model top) [3]: 18.1513 | AC50 [5]: > 99.9 µM | max_med [6]: -0.01755

SMILES: CCC(C)(c1ccc(O)cc1)c1ccc(O)cc1 [Bisphenol B]
hill_ga (Hill model log AC50) [1]: 1.739 | max_med (maximum median response) [3]: 49.2471 | hill_tp (Hill model top) [3]: 49.223

SMILES: N#Cc1c(Cl)cccc1Cl [Dichlobenil]
hill_ga (Hill model log AC50) [1]: 0 | max_med (maximum median response) [3]: 10.2924 | hill_tp (Hill model top) [3]: 0

SMILES: ClC(Cl)=C(c1ccc(Cl)cc1)c1ccc(Cl)cc1 [p,p'-DDE]
hill_ga (Hill model log AC50) [1]: 1.812 | Antagonist reference ([2]; Supplementary Table S1): Weak

SMILES: CCNc1nc(Cl)nc(NCC)n1 [Simazine]
hill_ga (Hill model log AC50) [1]: -0.7451 | Antagonist reference [2]: Inactive | max_med (maximum median response) [3]: 12.6117 | hill_tp (Hill model top) [3]: 7.295

SMILES: CC1(C)C(C=C(Cl)Cl)C1C(=O)OC(C#N)c1cccc(Oc2ccccc2)c1 (stereo not shown) [Cypermethrin]
hill_ga (Hill model log AC50) [1]: 0 | Agonist reference [2]: Inactive | max_med (maximum median response) [3]: 5.609 | hill_tp (Hill model top) [3]: 0

SMILES: CC(C)(C)C(=O)C(Oc1ccc(Cl)cc1)n1cncn1 (stereo not shown) [Triadimefon]
hill_ga (Hill model log AC50) [1]: -3.878 | max_med (maximum median response) [3]: 19.918 | hill_tp (Hill model top) [3]: 58.3985

SMILES: C=CC1(C)OC(=O)N(c2cc(Cl)cc(Cl)c2)C1=O (stereo not shown) [Vinclozolin]
hill_ga (Hill model log AC50) [1]: -3.255 | Antagonist reference [2]: Weak | Antagonist reference ([2]; Supplementary Table S1): Weak | max_med (maximum median response) [3]: 15.9864 | hill_tp (Hill model top) [3]: 12.9726

hill_ga (Hill model log AC50) [1]: 0
SMILES: CCOC(=O)c1ccc(O)cc1 [Ethylparaben]
max_med (maximum median response) [3]: 6.202 | hill_tp (Hill model top) [3]: 0

SMILES: Clc1ccc(C(c2ccccc2Cl)C(Cl)(Cl)Cl)cc1 (stereo not shown) [o,p'-DDT]
hill_ga (Hill model log AC50) [1]: 1.826 | hill_tp (Hill model top of curve) ([1]; human): 110.666 | max_med (maximum median response) ([1]; human): 83.8839 | Agonist reference [2]: Inactive | Antagonist reference [2]: Weak | Antagonist reference ([2]; Supplementary Table S1): Weak

SMILES: O=C1c2ccccc2C(=O)N1SC(Cl)(Cl)Cl [Folpet]
hill_ga (Hill model log AC50) [1]: 1.483 | max_med (maximum median response) [3]: 26.2456 | hill_tp (Hill model top) [3]: 26.8665

SMILES: CC1(C)C(C=C(Cl)Cl)C1C(=O)OC(C#N)c1ccc(F)c(Oc2ccccc2)c1 (stereo not shown) [Cyfluthrin]
hill_ga (Hill model log AC50) [1]: 0 | Agonist reference [2]: Inactive | max_med (maximum median response) [3]: 9.8887 | hill_tp (Hill model top) [3]: 0

hill_ga (Hill model log AC50) [1]: 1.291
SMILES: O=c1cc(-c2ccc(O)cc2)oc2cc(O)cc(O)c12 [Apigenin]
max_med (maximum median response) [3]: 44.3137 | hill_tp (Hill model top) [3]: 57.4844

SMILES: CNc1cnn(-c2cccc(C(F)(F)F)c2)c(=O)c1Cl [Norflurazon]
hill_ga (Hill model log AC50) [1]: 0 | max_med (maximum median response) [3]: 4.6212 | hill_tp (Hill model top) [3]: 0

SMILES: Oc1ccc(C(c2ccc(O)cc2)(C(F)(F)F)C(F)(F)F)cc1 [Bisphenol AF]
hill_ga (Hill model log AC50) [1]: 1.485 | max_med (maximum median response) [3]: 99.8528 | hill_tp (Hill model top) [3]: 100.2

SMILES: C=C1C[C@@H]2[C@H](CC[C@]3(C)C(=O)CC[C@@H]23)[C@@]2(C)C=CC(=O)C=C12 [Exemestane]
hill_tp (Hill model top) [1]: 0 | max_med (maximum median response) ([1]; spid Viability, sheet antagonist_fits): 7.414

SMILES: OC(c1ccc(Cl)cc1)(c1cncnc1)c1ccccc1Cl (stereo not shown) [Fenarimol]
hill_ga (Hill model log AC50) [1]: 0 | Agonist reference [2]: Inactive | Antagonist reference [2]: Weak | Antagonist reference ([2]; Supplementary Table S1): Weak | max_med (maximum median response) [3]: 16.9049 | hill_tp (Hill model top) [3]: 0

max_med (maximum median response) [4]: 67.6764 | win_model (winning concentration-response model) [4]: Hill | hill_gw (Hill model slope) [4]: 1.585 | hill_tp (Hill model top) [4]: 87.2882 | AC50 ([7]; spid=Bgal): 59.8 µM | AC50 ([7]; spid=No_RNA): 46.5 µM | hill_tp ([6]; sheet agonist_fits): 0 | max_med [6, 8]: 0.1579 | win_model ([6]; sheet agonist_fits): Constant
SMILES: O=c1c(-c2ccc(O)cc2)coc2cc(O)ccc12 [Daidzein]
Agonist reference ([2]; Supplementary Table S1): Inactive | max_med (maximum median response) [3]: 12.142 | hill_tp (Hill model top) [3]: 8.263

SMILES: CC(C)(C)CC(C)(C)c1ccc(O)cc1 [4-(1,1,3,3-Tetramethylbutyl)phenol]
hill_ga (Hill model log AC50) [1]: 1.5 | max_med (maximum median response) [3]: 99.7722 | hill_tp (Hill model top) [3]: 100.987

SMILES: CCNc1nc(Cl)nc(NC(C)C)n1 [Atrazine]
hill_ga (Hill model log AC50) [1]: 1.242 | Agonist reference [2]: Inactive | Antagonist reference [2]: Inactive | Agonist reference ([2]; Supplementary Table S1): Inactive | Antagonist reference ([2]; Supplementary Table S1): Inactive | max_med (maximum median response) [3]: 11.6649 | hill_tp (Hill model top) [3]: 7.792

SMILES: Clc1ccc(C(c2ccc(Cl)cc2)C(Cl)Cl)cc1 [p,p'-DDD]
hill_ga (Hill model log AC50) [1]: 1.74 | hill_tp (Hill model top of curve) ([1]; human, 18 h): 93.5622 | max_med (maximum median response) ([1]; human, 18 h): 93.2611

SMILES: Nc1nc[nH]n1 [Amitrole]
hill_ga (Hill model log AC50) [1]: 1.008 | max_med (maximum median response) [3]: 20.9539 | hill_tp (Hill model top) [3]: 26.1033

SMILES: O=[N+]([O-])c1ccc(O)c([N+](=O)[O-])c1 [2,4-Dinitrophenol]
max_med (maximum median response) [4]: 41.2653 | win_model (winning concentration-response model) [4]: Hill | hill_gw (Hill model slope) [4]: 1.229 | hill_tp (Hill model top) [4]: 60.4053 | max_med (maximum median response) [3]: 17.6561 | hill_tp (Hill model top) [3]: 19.403 | AC50 ([7]; spid=Bgal): 61.4 µM | AC50 ([7]; spid=No_RNA): 35.8 µM | hill_tp ([6]; sheet agonist_fits): 0 | max_med [6, 8]: 0.06149 | win_model ([6]; sheet agonist_fits): Constant

SMILES: CCOC(=O)c1ccccc1C(=O)OCC [Diethyl phthalate]
hill_ga (Hill model log AC50) [1]: 0.07147 | max_med (maximum median response) [3]: 22.6345 | hill_tp (Hill model top) [3]: 17.9391

SMILES: CC/C(=C(\c1ccc(O)cc1)c1ccc(OCCN(C)C)cc1)c1ccccc1 [Afimoxifene (4-Hydroxytamoxifen)]
max_med (maximum median response) [4]: 104.395 | win_model (winning concentration-response model) [4]: Hill | hill_gw (Hill model slope) [4]: 3.209 | hill_tp (Hill model top) [4]: 105.037 | max_med (maximum median response) [3]: 99.7378 | hill_tp (Hill model top) [3]: 99.9149 | AC50 ([7]; spid=Bgal): 7.28 µM | AC50 ([7]; spid=No_RNA): 5.39 µM | hill_tp ([6]; sheet agonist_fits): 0 | max_med [6, 8]: 0.04316 | win_model ([6]; sheet agonist_fits): Constant

SMILES: CCCCOC(=O)c1ccccc1C(=O)OCCCC [Dibutyl phthalate]
hill_ga (Hill model log AC50) [1]: 1.084 | max_med (maximum median response) [3]: 27.2383 | hill_tp (Hill model top) [3]: 28.3952
